What was measured:
[1] = target: T1, BRN2 (Homo sapiens, UniProt P20265); assay: cell-based; conditions: negative = activation; for inhibition at 10 µM: read-out: % BRN2 Inhibition (10 μM), 10 μM compound, 24 hours, 42D^ENZR cells stably expressing BRN2-luciferase reporter; for inhibition at 30 µM: read-out: % BRN2 Inhibition (30 μM), 30 μM compound, 24 hours, 42D^ENZR cells stably expressing BRN2-luciferase reporter
T1 sequence (P20265 1-443): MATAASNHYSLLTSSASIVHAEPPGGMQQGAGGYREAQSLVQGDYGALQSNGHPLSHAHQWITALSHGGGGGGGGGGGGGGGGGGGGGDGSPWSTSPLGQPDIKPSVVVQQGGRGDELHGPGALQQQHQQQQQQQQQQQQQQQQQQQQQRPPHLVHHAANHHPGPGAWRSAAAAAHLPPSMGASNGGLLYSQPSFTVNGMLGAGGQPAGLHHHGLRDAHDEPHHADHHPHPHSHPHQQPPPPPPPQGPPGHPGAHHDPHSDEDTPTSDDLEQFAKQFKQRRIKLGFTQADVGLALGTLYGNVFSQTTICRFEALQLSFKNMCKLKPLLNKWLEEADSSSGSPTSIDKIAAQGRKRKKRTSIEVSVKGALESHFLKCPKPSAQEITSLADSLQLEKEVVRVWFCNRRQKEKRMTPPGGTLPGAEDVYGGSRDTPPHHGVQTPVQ

[2] = Liver microsome metabolic stability, HLM; assay type: in vitro ADME; conditions: HLM (first of two values), 1 μM compound, 0.25 mg/mL protein
Protocol: Potassium phosphate buffer (Kphos) was prepared by adding 0.647 g potassium phosphate monobasic (KH2PO4) and 3.527 g potassium phosphate dibasic ([…]) to 400 mL of Milli-Q water. pH of the buffer was adjusted to 7.4 and volume was made up to 500 mL.
Microsomes (20 mg/mL) were diluted in KH2PO4 buffer to prepare a concentration of 0.357 mg/mL.
Stock solutions of BRN2 inhibitors were prepared in DMSO at a concentration of 1 mM
A stock solution of 3.33 mM NADPH (3.33×) was prepared by dissolving appropriate amount of NADPH in KH2PO4 buffer.
Total Incubation volume: 100 μL
Compound concentration: 1 μM
Protein Concentration: 0.25 mg/mL
An 1120 μL aliquot of Kphos buffer (50 mM, pH 7.4) containing liver microsomes (0.357 mg/mL) were added to individual 2 mL tubes (final concentration 0.25 mg/mL). Test compounds (1 mM) and positive controls were directly spiked into respective tubes to prepare a concentration of 1.428 μM (final concentration 1 μM). From the above mix, 70 μL was added to individual wells of 96 well reaction plates and pre-incubated in a 37° C. water bath for 5 min. All the reactions were initiated by adding 30 μL of 3.33 mM NADPH (final concentration 1 mM). Reactions without NADPH and buffer controls (minus NADPH) at 0 min and 60 min were also incubated to rule out non-NADPH metabolism or chemical instability in the incubation buffer. All reactions were terminated using 100 μL of ice-cold acetonitrile containing internal standard at 0, 5, 15, 30 and 60 min. The plates were centrifuged at 4000 RPM for 15 min and 100 μL aliquots were submitted for analysis by LC-MS/MS.
Samples were monitored for parent compounds disappearance in MRM mode using LC-MS/MS.
The percent remaining of test compounds and positive control in each sample was determined by considering peak area ratio in the 0 minute sample as 100%. The Half-life of compounds in microsomes is calculated by formula:
Half-life (t½) (min)=0.693/k, where k is gradient of line determined from plot of peak area ratio (compound peak area/internal standard peak area) against time.
In vitro intrinsic clearance (CL'int) (units in mL/min/kg) was calculated using the formula.
[formula] • For liver microsomes, scaling factor used was 45 mg microsomal protein per gm liver. • Indicates liver weight (gm) which varies species wise. For mice the liver weights are 90 gm.
(§1) Where data is not available “na” is inserted.

[3] = Liver microsome metabolic stability, MLM; assay type: in vitro ADME; conditions: MLM (single value or second of two), 1 μM compound, 0.25 mg/mL protein; for Met Stab % (60 mins HLM/MLM): percent remaining at 60 min, 1 mM NADPH; for half-life at 1 µM: mouse, liver microsomes, pH 7.4, read-out: T1/2 in (mins HLM/MLM)
Procedure, shortened: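 Compound (1 μM) incubated at 37 °C with mouse or human liver microsomes (0.25 mg/mL) in 50 mM phosphate pH 7.4 with 1 mM NADPH; samples quenched at 0–60 min. Parent loss by LC-MS/MS gives t½ (0.693/k) and CL'int scaled by 45 mg protein/g liver.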

[4] = test system: 42D^ENZR cells vs 16D^CRPC cells; assay: Cell proliferation specificity, 42D^ENZR cells vs 16D^CRPC cells; assay type: cell-based; conditions: 42D cells express BRN2, 16D cells do not; some also LNCaP; result in words
Protocol: (§2) Plate 42DENZR (˜7000 cells per well) and 16D^CRPC (˜5000 cells per well) cells in 96 well plate with a volume of 100 μL per well. • 2. Next day 1 mL aliquots of media are combined with 3× the desired concentration of compounds. The aliquots are vortexed and 50 μL of each 3× concentration is added to the 100 μL of media in each well to give the ix desired concentration.
(§3) The following are the desired concentrations:
(§4) 0, 10 nM, 100 nM, 500 nM, 1 μM, 2.5 μM, 5 μM, 10 μM, 15 μM, […], 30 μM. • 3. Approximately 72 hours later, 17 μL of 10% Glutaraldehyde is added to each well and plates are placed on a shaker for 20-30 minutes. • 4. Media is washed off the fixed cells by slow submersion in a container of water. Then the water is removed by tapping the plate upside down. • 5. 75 μL of Crystal Violet™ solution is added into the 96 well plates and placed on a shaker for ˜30 minutes. • 6. Media is washed off the fixed cells by repeated slow submersion in a container of water and the plates are allowed to dry over-night. • 7. Next day, 75 μL of Sorensen Solution is accurately pipetted into each well. The plates placed on a shaker for ˜30 minutes. • 8. Absorbance is measured in the plate at 590 nm.
Compounds that Show Specificity Towards 42D^ENZR Cells Vs 16D^CRPC Cells Progress to Step 4.
as §1

[5] = target: T1, BRN2; assay: BLI binding
[6] = test system: 42D^ENZR cells; assay: Cell proliferation (crystal violet), BRN2 expressing 42D^ENZR cells; assay type: cell-based; conditions: 42D cells, approximately 72 hours
Protocol: as §2, §3, §4

## FC(F)(F)c1ccc2cc(-c3csc(-c4ccco4)n3)oc2c1 [VPC-18-51, 2-(Furan-2-yl)-4-(6-(trifluoromethyl)benzofuran-2-yl)thiazole]
[1]
  inhibition at 10 µM: 62.5%
  inhibition at 30 µM: 71.4%
[2]; percent remaining at 60 min, 1 mM NADPH
  Met Stab % (60 mins HLM/MLM): 42%
[2]; human, liver microsomes, pH 7.4, read-out: T1/2 in (mins HLM/MLM)
  half-life at 1 µM: 45 min
[3]
  Met Stab % (60 mins HLM/MLM): 7%
  half-life at 1 µM: 16 min
[4]
  specificity: specific 42D not 16D
[5]
  BLI binding: binding

## Clc1cc2cc(-c3csc(-c4ccc[nH]4)n3)oc2cc1Cl [VPC-18-142]
[1]
  inhibition at 10 µM: 29.1%
  inhibition at 30 µM: 53.6%
[3]
  Met Stab % (60 mins HLM/MLM): 17%
  half-life at 1 µM: 26 min
[6]
  IC50: 2500 nM
[4]
  specificity: not 16D
[5]
  BLI binding: binding
